Laboratory results reported in patent publication US20130184320A1, “Imine Compounds” (BASF SE, priority 2010, published 2013).

Key:
Type in all cases: in vivo
[1] = system: bemisia argentifolii; assay: B.8 Silverleaf whitefly spray test on cotton plants; settings: 300 ppm; silverleaf whitefly adults on sprayed cotton; 3 days
Excerpt: B.8 Silverleaf Whitefly (bemisia argentifolii)
The active compounds were formulated in cyclohexanone as a 10,000 ppm solution supplied in tubes. The tubes were inserted into an automated electrostatic sprayer equipped with an atomizing nozzle and they served as stock solutions for which lower dilutions were made in 50% acetone:50% water (v/v). A nonionic surfactant (Kinetic®) was included in the solution at a volume of 0.01% (v/v).
Cotton plants at the cotyledon stage (one plant per pot) were sprayed by an automated electrostatic plant sprayer equipped with an atomizing spray nozzle. The plants were dried in the sprayer fume hood and then removed from the sprayer. Each pot was placed into a plastic cup and about 10 to 12 whitefly adults (approximately 3-5 days old) were introduced. The insects were collected using an aspirator and a nontoxic Tygon® tubing connected to a barrier pipette tip. The tip, containing the collected insects, was then gently inserted into the soil containing the treated plant, allowing insects to crawl out of the tip to reach the foliage for feeding. Cups were covered with a reusable screened lid. […] Mortality was assessed 3 days after treatment, compared to untreated control plants.

[2] = system: Aphis craccivora; assay: B.2 Cowpea aphid spray test on potted cowpea plants; settings: sprayed plants, assessed after 24, 72 and 120 hours, read-out: mortality in comparison with untreated controls
Description: B.2 Cowpea Aphid (Aphis craccivora)
Potted cowpea plants colonized with approximately 100-150 aphids of various stages were sprayed after the pest population had been recorded. Population reduction was assessed after 24, 72, and 120 hours.

[3] = system: Plutella xylostella; assay: B.3 Diamond back moth leaf dip test on Chinese cabbage; settings: foliar, recorded 24, 72 and 120 hours after treatment, read-out: mortality in comparison with untreated controls
Description: B.3 Diamond Back Moth (Plutella xylostella)
Leaves of Chinese cabbage were dipped in test solution and air-dried. Treated leaves were placed in petri dished lined with moist filter paper. Mortality was recorded 24, 72, and 120 hours after treatment.

[4] = system: Myzus persicae; assay: B.4 Green peach aphid systemic test, artificial diet in 96-well plates; settings: 72 h, 3 days, read-out: mortality in comparison with untreated controls
Excerpt: B.4 Green Peach Aphid (Myzus persicae)
For evaluating control of green peach aphid (Myzus persicae) through systemic means the test unit consisted of 96-well-microtiter plates containing liquid artificial diet under an artificial membrane.
The compounds were formulated using a solution containing 75% v/v water and 25% v/v DMSO. Different concentrations of formulated compounds were pipetted into the aphid diet, using a custom built pipetter, at two replications.
After application, 5-8 adult aphids were placed on the artificial membrane inside the microtiter plate wells. The aphids were then allowed to suck on the treated aphid diet and incubated at about 23±1° C. and about 50±5% relative humidity for 3 days. Aphid mortality and fecundity was then visually assessed.

[5] = system: Ceratitis capitata; assay: B.5 Mediterranean fruitfly microtiter plate diet test; settings: 120 h, Mediterranean fruitfly eggs and larvae on diet, 5 days, read-out: mortality in comparison with untreated controls
Description: B.5 Mediterranean Fruitfly (Ceratitis capitata)
For evaluating control of Mediterranean fruitfly (Ceratitis capitata) the test unit consisted of microtiter plates containing an insect diet and 50-80 C. capitata eggs.
The compounds were formulated using a solution containing 75% v/v water and 25% v/v DMSO. Different concentrations of formulated compounds were sprayed onto the insect diet at 5 μl, using a custom built micro atomizer, at two replications.
(§1) After application, microtiter plates were incubated at about 28±1° C. and about 80±5% relative humidity for 5 days. Egg and larval mortality was then visually assessed.

[6] = system: Dichromothrips corbetti; assay: B.6 Orchid thrips floral-immersion test; settings: 96 h, orchid thrips adults, 4 days, read-out: mortality in comparison with untreated controls
Description: B.6 Orchid Thrips (dichromothrips corbetti)
Dichromothrips corbetti adults used for bioassay were obtained from a colony maintained continuously under laboratory conditions. For testing purposes, the test compound was diluted to a concentration of 500 ppm (wt compound: vol diluent) in a 1:1 mixture of acetone:water (vol:vol), plus 0.01% vol/vol Kinetic® surfactant.
Thrips potency of each compound was evaluated by using a floral-immersion technique. Plastic petri dishes were used as test arenas. All petals of individual, intact orchid flowers were dipped into treatment solution and allowed to dry. Treated flowers were placed into individual petri dishes along with 10-15 adult thrips. The petri dishes were then covered with lids. All test arenas were held under continuous light and a temperature of about 28° C. for duration of the assay. After 4 days, the numbers of live thrips were counted on each flower, and along inner walls of each petri dish. The level of thrips mortality was extrapolated from pre-treatment thrips numbers.

[7] = system: Heliothis virescens; assay: B.11 Tobacco budworm I microtiter plate diet test; settings: 120 h, tobacco budworm eggs and larvae on diet, 5 days, read-out: mortality in comparison with untreated controls
Description: B.11 Tobacco Budworm (Heliothis virescens) I
For evaluating control of tobacco budworm (Heliothis virescens) the test unit consisted of 96-well-microtiter plates containing an insect diet and 15-25 H. virescens eggs.
The compounds were formulated using a solution containing 75% v/v water and 25% v/v DMSO. Different concentrations of formulated compounds were sprayed onto the insect diet at 10 μl, using a custom built micro atomizer, at two replications.
as §1

[8] = system: Anthonomus grandis; assay: B.12 Boll weevil microtiter plate diet test; settings: 120 h, boll weevil eggs and larvae on diet, 5 days, read-out: mortality in comparison with untreated controls
Description: B.12 Boll Weevil (Anthonomus grandis)
For evaluating control of boll weevil (Anthonomus grandis) the test unit consisted of 24-well-microtiter plates containing an insect diet and 20-30 A. grandis eggs.
The compounds were formulated using a solution containing 75% v/v water and 25% v/v DMSO. Different concentrations of formulated compounds were sprayed onto the insect diet at 20 μl, using a custom built micro atomizer, at two replications.
After application, microtiter plates were incubated at about 23±1° C. and about 50±5% relative humidity for 5 days. Egg and larval mortality was then visually assessed.

Compound	mortality in comparison with untreated controls [1]	mortality at 500 ppm [2]	mortality at 500 ppm [3]	mortality at 2500 ppm [4]	mortality at 2500 ppm [5]	mortality at 500 ppm [6]	mortality at 2500 ppm [7]	mortality at 2500 ppm [8]
CNC(=O)NN=Cc1ccc(N2CCC(c3cc(Cl)cc(Cl)c3)(C(F)(F)F)C2)cc1Cl (centres unmarked) [Compound 2-4]	at least 75%	–	–	–	–	–	–	–
O=C(NCC(F)(F)F)N/N=C/c1ccc(N2CC(c3cc(Cl)cc(Cl)c3)(C(F)(F)F)OC2=O)cc1Cl (centres unmarked) [Compound 3-1, 1-[(E)-[2-chloro-4-[5-(3,5-dichlorophenyl)-2-oxo-5-(trifluoromethyl)oxazolidin-3-yl]phenyl]methyleneamino]-3-(2,2,2-trifluoroethyl)urea]	–	≥ 75%	≥ 75%	≥ 75%	≥ 75%	≥ 75%	≥ 75%	≥ 75%
